Data reported in patent publication US20210038668A1, “TRADITIONAL CHINESE MEDICINE COMPOSITION FOR PREVENTING AND/OR TREATING ISCHEMIC REPERFUSION INJURY” (TASLY PHARMACEUTICAL GROUP CO., LTD., priority 2018, published 2021).

How the values were obtained:
Format in all cases: in vivo, C57BL/6 mice
mitochondrial complex II = test: Mitochondrial complex II activity in brain tissue; settings: brain tissue 24 hours after administration; tPA 10 mg/kg alone or + T541 20 mg/kg or ingredients at Table 7 doses
Text: (§1) To compare the therapeutical effect on reperfusion injury caused by tPA thrombolysis between the traditional Chinese medicinal composition of the present invention and each ingredient (total saponins of Astragalus, the experiment was divided into the following group (tPA is combined with T541, individual ingredient thereof and compatibility of any two ingredients) specifically as follows: tPA+total saponins of Astragalus (tPA+HQ), tPA+ salvianolic acids (tPA+DS), tPA+Panax notoginseng saponins (tPA+SQ), tPA+ total saponins of Astragalus+salvianolic acids (tPA+HQ+DS), tPA+ total saponins of Astragalus+Panax notoginseng saponins (tPA+HQ+SQ), tPA+ salvianolic acids+Panax notoginseng saponins (tPA+DS+SQ) and tPA+T541. Normal saline served as an isovolumetric control. The usage number in each group is 6.
(§2) ELISA adsorption kit was used to measure the change on the content of MDA, 8-hydroxyl-2′-deoxyguanosine (8-OHdG), adenosine triphosphate (ATP), adenosine diphosphate (ADP) and adenosine monophosphate (AMP) in the penumbra field of brain tissue cortex of the mode, and the change on the activity of mitochondrial complexes I, II, IV and V. 6 samples were used to repeat the independent experiment for at least three times for each group of data.

mitochondrial complex IV = test: Mitochondrial complex IV activity in brain tissue; settings: brain tissue 24 hours after administration; tPA 10 mg/kg alone or + T541 20 mg/kg or ingredients at Table 7 doses
Text: as §1, §2

[1] = system: thrombus of arteria carotis communis; test: Observation of carotid thrombus size, FeCl3 model
Protocol: Mice were anesthetized via intraperitoneal injection by pentobarbital sodium (2%, 45 mg/kg), and neck kin was sterilized. A median incision was cut on the neck, exposed and isolated to obtain arteria carotis communis; a waterproof cushion was used to isolate arteria carotis communis with the length of about 2.5-3 mm from surrounding tissues. The isolated arteria carotis communis was wrapped by a filter paper soaked by 10% FeCl3 for about 1 mm (width), and the filter paper was removed 3 minutes later, the outside of blood vessel was washed by 0.9% normal saline. The waterproof cushion was removed. The neck incision was sutured. The start of Fe3+ stimulation was defined as the beginning of ischemia, and those mice meeting the following conditions were selected into the group: the blood vessel was blocked at the maximum diameter of the neck thrombus 10 minutes after ischemia; the blood flow of the carotid artery distal end was less than 20% of the base value 15 minutes after ischemia; and the thrombus was stable 4.5 hours after ischemia (before reperfusion); the carotid artery vessel at 60% and more of the diameter was blocked by the maximum diameter of the thrombus.
Mice were treated by medicaments or normal saline according to random grouping results 4.5 hours after ischemia. Mice femoral vein was intubated, and left femoral vein was injected tPA (tissue plasminogen activator) or normal saline; right femoral vein was injected the traditional Chinese medicinal composition of the present invention or normal saline; 10% of the total dose was injected via an injection pump, and the rest 90% were continuously injected intravenously for 1 hour with the rate of 0.1 ml/h. Three proportion groups were selected to the traditional Chinese medicinal composition of the present invention respectively below:
Carotid thrombus of mice was dynamically observed by an upright microscope. Anesthetized mice were placed on a board in supine position, a median incision was cut on the neck; arteria carotis communis was exposed and separated; femoral vein was given Acridine red fluorescence labeling of blood platelet to observe the change of carotid thrombus of mice before ischemia (namely, a base value), 10 minutes after ischemia, 4.5 hours after ischemia (namely, before reperfusion), 1 hour after reperfusion, 2 hours after reperfusion and 24 hours after reperfusion. There was no thrombus before ischemia (namely, a base value); the blood vessel was blocked by thrombus at a maximum diameter 10 minutes after ischemia; blood flow at the distal end of carotid artery decreased to 20% of the base value below 15 minutes after ischemia; the thrombus was stable 4.5 hours after ischemia (namely, before reperfusion). The success criterion is that the size of thrombus blocks 60% of the vascular area of carotid artery and above; the success rate of entry is up to 90.9%. Excepting for the sham-operated group and each basal group, the rest groups were randomly allocated after building models successfully.

MDA = test: ELISA of MDA in brain tissue; settings: brain tissue 24 hours after administration; tPA 10 mg/kg alone or + T541 20 mg/kg or ingredients at Table 7 doses
Text: as §1, §2

VE-cadherin = test: Western blotting of VE-cadherin, cortex of ischemic penumbra; settings: brain tissue 24 hours after administration, sham = 1.00; tPA 10 mg/kg alone; T541 20 mg/kg + tPA 10 mg/kg
Protocol: After reperfused for 24 hours, mice were perfused by normal saline; Western blotting analysis was conducted to the penumbra field of infarcted right cerebral cortex. After perfused, mice brain tissue was taken out; cerebellum and prefrontal lobe were cut off; the brain tissue of right brain close to 1 cm of the central joint of left and right hemispheres along the sagittal view; infarcted penumbra field of the rest tissues was cut off along an 45° angle; the cerebral cortex of the penumbra field was peeled off and preserved at low temperature. Right cerebral cortex was taken and added 1×RIPA lysate and a Cocktail protease inhibitor (1:100, Cell Signaling Technology, US) for full pyrolysis and ultrasonic treatment, and then 17000 g were centrifuged for 30 minutes. Supernatant was taken and added 5×loading buffer by volume, boiled for 20 minutes in boiling water, and then preserved at −80° C. Excessive supernatant was taken out and quantified by a BCA protein quantification liquor (ThermoScientific, US) to measure absorbance value at 560 nm of ELIASA and to calculate the protein concentration according to a standard curve. […] The density of electrophoretic strips was analyzed by an image analysis software Quantityone. […]

[2] = system: ATP, ADP and AMP of cerebral cortex in ischemic penumbra; test: ELISA of ATP, ADP and AMP in brain tissue; settings: brain tissue 24 hours after administration
Text: as §1, §2

[3] = before administration, groups: tPA 10 mg/kg alone, T541 20 mg/kg, T141 12 mg/kg, T582 15 mg/kg each + tPA 10 mg/kg
[4] = iv, tPA 10 mg/kg alone, T541 20 mg/kg, T141 12 mg/kg, T582 15 mg/kg each + tPA 10 mg/kg
[5] = tPA 10 mg/kg alone or + T541 20 mg/kg or ingredients at Table 7 doses

tPA: tissue-type plasminogen activator (tPA) for thrombolysis
Complex II activity (mitochondrial complex II): 0.025 ± 0.005 | Complex IV activity (mitochondrial complex IV): 0.267 ± 0.016 | Size of thrombus, 10 minutes after FeCl3 simulation [1, 3]: 25.13 ± 1.34 | Size of thrombus, Before FeCl3 simulation [1, 3]: 0 ± 0 | thrombolysis effect (in words) ([1]; given alone: T541 20 mg/kg, tPA 10 mg/kg (24 hours later)): size of thrombus decreases obviously | Size of thrombus, 5.5 hours after FeCl3 simulation (1 hour after administration) [1, 4]: 22.14 ± 1.36 | Size of thrombus, 6.5 hours after FeCl3 simulation (2 hours after administration) [1, 4]: 16.64 ± 4.10 | Size of thrombus, 28.5 hours after FeCl3 simulation (24 hours after administration) [1, 4]: 11.15 ± 2.61 | Size of thrombus, 4.5 hours after FeCl3 simulation ([1]; start of administration, groups: tPA 10 mg/kg alone, T541 20 mg/kg, T141 12 mg/kg, T582 15 mg/kg each + tPA 10 mg/kg): 23.47 ± 1.78 | MDA (MDA): 30.08 ± 2.90 | VE-cadherin/β-actin (VE-cadherin): 0.53 ± 0.07 | ADP [2, 5]: 2.51 ± 0.24 | ADP/ATP [2, 5]: 2.45 ± 0.10 | AMP [2, 5]: 2.66 ± 0.32 | AMP/ATP [2, 5]: 2.68 ± 0.34 | ATP ([2]; tPA 10 mg/kg alone or + T541 20 mg/kg or ingredients at Table 7 doses (Astragalus saponins 10, Panax notoginseng saponins 2, salvianolic acids 8, in pairs 2 mg/kg)): 1.05 ± 0.13
